# Literature values, collected in US20060040003A1, “Dietary supplement for supressing appetite, enhancing and extending satiety, improving glycemic control, and stimulant free” (priority 2004, published 2006).
# Target: T1, plasma albumin (Homo sapiens, UniProt P02768)
# T1 construct: host or cells: blood plasma (circulation)
# T1 sequence (P02768 25-609): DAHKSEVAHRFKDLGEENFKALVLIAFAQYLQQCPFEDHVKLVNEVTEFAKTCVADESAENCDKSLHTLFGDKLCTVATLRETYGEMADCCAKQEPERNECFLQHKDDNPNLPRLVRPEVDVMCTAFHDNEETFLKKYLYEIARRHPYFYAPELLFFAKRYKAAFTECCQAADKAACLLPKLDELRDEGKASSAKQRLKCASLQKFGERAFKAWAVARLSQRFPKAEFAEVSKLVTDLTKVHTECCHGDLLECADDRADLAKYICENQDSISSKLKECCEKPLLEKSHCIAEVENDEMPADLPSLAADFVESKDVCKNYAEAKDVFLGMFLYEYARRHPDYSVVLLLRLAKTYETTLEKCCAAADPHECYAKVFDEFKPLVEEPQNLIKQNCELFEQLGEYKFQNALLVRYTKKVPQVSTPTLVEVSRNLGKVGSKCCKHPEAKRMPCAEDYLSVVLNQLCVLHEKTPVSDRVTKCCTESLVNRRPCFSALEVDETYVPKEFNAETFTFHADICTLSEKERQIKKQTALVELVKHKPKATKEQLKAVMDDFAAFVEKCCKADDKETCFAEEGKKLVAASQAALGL
structure (smiles),measurement,value
N[C@@H](Cc1c[nH]c2ccccc12)C(=O)O [tryptophane],circulating in the blood as free tryptophane,20%
